# Measurements: article PMC12974487, “Inhibition of FicD-mediated AMPylation and deAMPylation by isoprenoid diphosphates” (Proceedings of the National Academy of Sciences of the …, 2026)
# Numbering of substitutions follows the chain as printed.
# Legend:
# FicD^E234G, L258D = molecular target: T1, FicD^E234G, L258D (Homo sapiens, UniProt Q9BVA6, E234G/L258D); test: DSF thermal shift with FicD^E234G, L258D; type: binding
# T1 construct: Wild-type FicD (residues 105-458) and all mutants were expressed as N-terminal 6xHis-Sumo fusions; 6xHis-Sumo (N, cleaved yes); made in house; host or cells: Rosetta(DE3) E. coli
# T1 sequence (Q9BVA6 105-458 E234G/L258D): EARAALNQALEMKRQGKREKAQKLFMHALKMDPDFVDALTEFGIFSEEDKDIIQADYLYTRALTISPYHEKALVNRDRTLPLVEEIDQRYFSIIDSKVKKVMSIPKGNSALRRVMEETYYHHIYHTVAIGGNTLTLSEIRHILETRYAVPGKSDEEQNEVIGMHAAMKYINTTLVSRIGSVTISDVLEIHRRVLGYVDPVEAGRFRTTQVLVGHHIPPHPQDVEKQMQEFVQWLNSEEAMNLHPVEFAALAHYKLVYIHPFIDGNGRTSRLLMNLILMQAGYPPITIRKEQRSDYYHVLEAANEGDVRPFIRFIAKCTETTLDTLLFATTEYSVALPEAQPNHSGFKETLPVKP
# FicD^L258D = molecular target: T2, FicD^L258D (Homo sapiens, UniProt Q9BVA6, L258D); test: Isothermal titration calorimetry (ITC) with Δ104hFicD^L258D; type: binding; conditions: 4 mM MgCl2
# T2 construct: soluble ER luminal domain (residues 105 to 458) of wild-type human FicD and three mutants; 6xHis-Sumo (N, cleaved yes); made in house; host or cells: Rosetta(DE3) E. coli
# T2 sequence (Q9BVA6 105-458 L258D): T1 sequence (Q9BVA6 105-458 E234G/L258D) with G130E
# Source text: To further support this notion, we used Isothermal Titration Calorimetry (ITC) to determine the Kd of FPP binding. […] In these experiments, the interaction between FPP and Mg^2+ generated endothermic peaks that interfered with detecting the interaction between FPP, Mg^2+, and FicD (Fig. 3, Upper). The stoichiometry of FPP binding to FicD was consistently <0.85, which may indicate that Mg^2+ was not saturating. Because the endothermic interaction between Mg^2+ and FPP limited the quantity of MgCl2 we could add, the measured Kd could be larger than the true value.
# Fig. 3. ITC with FicD and Farnesyl-pyrophosphate. Representative ITC thermogram for FPP binding to Δ104hFicD^L258D (Upper). […] Dissociation constants (Kd) of individual replicates and global fitting of triplicate isotherms are reported with 1σ error intervals in parenthesis. TEXT PRINTED IN THE PICTURE: no label printed: Kd (nM): 32.3 (15.6, 54.9) (Replicate 1); Kd (nM): 25.6 (10.1, 47.7) (Replicate 2); Kd (nM): 45.2 (29.4, 68.8) (Replicate 3); Kd (nM): 60.3 (23.1, 126.3) (Global) DOUBTS OF THE COPYIST ABOUT THIS PICTURE: The picture prints no substance label; the table rows are replicates and a global fit of one measurement, so all four Kd values are given under one unlabeled substance. […]
# Isothermal Titration Calorimetry
# Proteins were dialyzed against 25mM HEPES pH 7.4/100mM KCl/10% glycerol prior to titration.
# Dialyzed proteins were then spun down at 21,000G for 15 minutes at 4C to remove trace insoluble material. The protein concentration was measured spectrophotometrically and then diluted to working concentration with 25mM HEPES pH 7.4/100mM KCl/10% glycerol. MgCl2 was added to proteins to a final concentration of 4mM. ITC experiments were performed in a Micro-Cal PEAQ-ITC (Malvern Panalytical, Worcestershire, UK) calorimeter with a stirred 206.2 μL reaction cell held at 20 °C. 250μM FPP was titrated into 25uM Δ104hFicL258D with 750rpm stirring. The first injection was 0.5 μL, followed by twenty 1.9 μL injections. ITC data were integrated and baseline corrected using NITPIC 2.1.5 (10, 11). Integrated data was globally analyzed in SEDPHAT 15.b (12) using a model considering a single class of binding sites. […]
# 10% Lithium dodecyl sulfate, 50% glycerol, 50mM DTT, 0.05% Bromophenol blue) and then heated […]
# For deAMPylation assays with FicD and BiP, Δ26hBiPT229A was in-vitro AMPylated by […]
# 5mM MgCl2, 500uM ATP, 0.5% CHAPS, 1mM DTT. After one hour of incubation at 30-37C, the entire reaction mix was transferred into an Amicon 0.5mL 50kDa MWCO concentrator (cat no.
# 7.4/150mM NaCl/10% glycerol/1mM DTT was added to the concentrated AMPylation reaction and then spun down again at 14,000 x g at 4C for 5-10 minutes. This step was repeated four times to buffer exchange AMPylated Δ26hBiPT229A.
# Δ104hFicDWT and Δ26hBiPT229A-AMP were combined at a ratio of 1:80 in buffer containing 25mM HEPES pH 7.4, 100mM KCl, 5mM MgCl2, 1mM DTT and the indicated small molecule where applicable. Reactions were incubated at 37C for 1 hour and stopped by the addition EDTA. 5X SDS sample buffer (250mM Tris pH 6.8, 10% Lithium dodecyl sulfate, 50% glycerol, 50mM DTT, 0.05% Bromophenol blue) was then added to the reactions and reactions were heated for 5 minutes at […]
# For in-vitro AMPylation assays with VopS and CDC42, Δ30VopS and GST-CDC42 – provided by a previous lab member – were combined at a 1:80 molar ratio in 50mM Tris pH 7.4/100mM NaCl/1mM DTT in the presence of GPP or FPP, where applicable. […]
smiles,measurement,setting,value
"CC(C)=CCC/C(C)=C/CC/C(C)=C/COP(=O)(O)OP(=O)(O)O [FPP, farnesyl-pyrophosphate]","binding to FicD^E234G, L258D by DSF","FicD^E234G, L258D; absence of MgCl2",bound
same,"binding to FicD^E234G, L258D by DSF","FicD^E234G, L258D; presence of 5 mM MgCl2",bound
same,stoichiometry of binding to FicD (ITC),FicD^L258D,< 0.85
